This is an account of results in patent US20240091292A1, “METHODS FOR TREATMENT OF HUMAN CANCERS USING CANNABIS COMPOSITIONS” (Apollon Formularies PLC, priority 2021, published 2024).

What all share (format): cell-based
Assay [1] concerns T-47D. Kind of assay: 3D Cell Proliferation Screen, T-47D. Particulars: Homo sapiens, T47D, 120 h, T-47D breast spheroids, 5 days, positive control. As to the method:
(§1) Experimental Methods: 3D Cell Proliferation Assay
(§2) Cells were seeded at 1000 cells/well in media in 384-well Corning® Spheroid microplates. The microplates were incubated at 37 C in 5% CO2 incubator to allow for spheroid formation.
(§3) Aliquots of each sample were vortexed and centrifuged at 3,000 rpm (800 g) for 5 minutes at room temperature. Supernatants (500-fold stocks) were stored under sterile conditions at 4 C.
(§4) On the day of the assay, a 9-point dose-response of each 500-fold stock was prepared and added to the spheroid plates to provide final assay concentrations ranging from 1e-04 to 1-fold, in 0.2% DMSO. Final assay conditions for each sample are shown on Table 1.
(§5) Assay plates were incubated at 37 C in an atmosphere containing 5% CO2 for 5 days. […] Cell viability was determined at 5 days post-compound addition. Briefly, 3D-CellTiter Glow™ reagent (Promega) was added to assay plates per the manufacturer's recommendations. Plates were shaken until spheroids were lysed and luminescence was read at room temperature.
(§6) Cell proliferation end point was analyzed as Percent of Control (POC) using the following formula: […]
(§7) A relative cell count EC50 is the concentration of the test compound that produces a response half-way between the maximum and baseline. Relative cell count IC50 is the concentration of the test compound that produces 50% of the cell proliferation inhibitory response or 50% cytotoxicity level. GI50 is the concentration of the test compound that produces 50% reduction in proliferation of cancer cells relative to T0. The output of each biomarker is fold-increase over vehicle control background normalized to the relative cell count in each well.
(§8) EC50, IC50 and GI50 values were calculated using nonlinear regression to fit data to a sigmoidal 4-point, 4-parameter log-logistic dose response model:
(§9) Curve-fitting and EC50 calculations were performed using the R statistical software package with R's drc library.

Assay [2] deals with 22Rv-1. Kind of assay: 3D Cell Proliferation Screen, 22Rv-1. The note with it: Homo sapiens, 22Rv1, 120 h; 22Rv-1 prostate spheroids, 5 days; relative to T0; positive control. Here is the method:
as §1, §2, §3, §4, §5, §6
(§10) EC50, IC50 and GI50 values were calculated using nonlinear regression to fit data to a sigmoidal 4-point, 4-parameter log-logistic dose response model: […]

The subject of assay [3] is NCI-H460. Nature of the assay: 3D Cell Proliferation Screen, NCI-H460. Particulars: Homo sapiens, 120 h; NCI-H460 lung spheroids, 5 days; relative to T0; positive control. Here is the method: as §1, §2, §3, §4, §5, §6, §10
Assay [4] relates to HT-29. Kind of assay: 3D Cell Proliferation Screen, HT-29. The note with it: Homo sapiens, 120 h, HT-29 colon spheroids, 5 days, positive control. As to the method: as §1, §2, §3, §4, §5, §6, §7, §8, §9
The test system of assay [5] is PC-3. Kind of assay: 3D Cell Proliferation Screen, PC-3. The note with it: Homo sapiens, 120 h, PC-3 prostate spheroids, 5 days, positive control. As to the method:
as §1, §2, §3, §4, §5, §6, §10

Assay [6] concerns T24. Kind of assay: 3D Cell Proliferation Screen, T24. Particulars: Homo sapiens, T-24, 120 h, T24 bladder spheroids, 5 days, positive control. As to the method: as §1, §2, §3, §4, §5, §6, §7, §8, §9
Assay [7] deals with A-549. Kind of assay: 3D Cell Proliferation Screen, A-549. The note with it: Homo sapiens, A549, 120 h, A-549 lung spheroids, 5 days, positive control. As to the method: as §1, §2, §3, §4, §5, §6, §10
In assay [8] the test system is BT-474. Nature of the assay: 3D Cell Proliferation Screen, BT-474. Particulars: Homo sapiens, 120 h; BT-474 breast spheroids, 5 days; relative to T0; positive control. As to the method: as §1, §2, §3, §4, §5, §6, §10

What is called EC50 is the concentration needed to bring the measured effect to its halfway point. Low readings indicate a more potent agent, high ones a less potent agent. As a reminder, the IC50 is the concentration that inhibits the measured activity by half. As a reminder, the GI50 is the concentration giving 50% growth inhibition. On to `CN[C@@H]1C[C@H]2O[C@@](C)([C@@H]1OC)n1c3ccccc3c3c4c(c5c6ccccc6n2c5c31)C(=O)NC4` [Staurosporine], for which the EC50 in assay [1] is 101 nM; in assay [4] it was 9 nM; in assay [6] it was 13 nM; in assay [7], 17 nM. Further, the IC50 in assay [1] is 101 nM; in assay [4], 9 nM; in assay [5], 4 nM; in assay [6], 13 nM. Also, the GI50 in assay [1] (relative to T0) turned out to be 38 nM; in assay [2], 13 nM; in assay [3], 17 nM; in assay [4] (relative to T0), 7 nM; in assay [5] (relative to T0), 1 nM; in assay [6] (relative to T0) it was 1 nM. Moreover, the GI50 was 11 nM in assay [7] (relative to T0) and 3 nM in assay [8].
